The source of these data is PubChem BioAssay (NCI).

Where “and” joins values, the source holds several entries; their conditions need not be identical. Equal entries are not always repeated.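 Five concentrations, 48 hours, 96-well plates. At the GI50, growth is halved. At the TGI there is no net growth.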

The first assay has as its system OVCAR-8 ovarian. Kind of assay: growth of human tumour cells (NCI), 48 h.
As for `CCc1nc(N)nc(N)c1-c1ccc([N+](=O)[O-])c(NCc2ccccc2)c1`, the TGI came out at 42.2 µM.

As for `COc1ccc(C2Oc3c(OC)cc(CCCO)cc3C2CO)cc1OC` (centres undefined), the TGI is more than 100 µM.

`COc1cc2c3cc1Oc1c(OC)c(OC)cc4c1C(Cc1ccc(O)c(c1)Oc1ccc(cc1)CC3N(C)CC2)CN(C)C4` (centres undefined): the TGI worked out at 31.3 µM.

In turn, `COc1cc2[nH]c(=O)c3cc(-c4ccccc4)cc4c(Cl)nc(c1OC)c2c43` displayed a TGI of 98.4 µM.

Another assay relates to MDA-MB-435. Kind of assay: growth of human tumour cells (NCI), 48 h.
As to `CCc1nc(N)nc(N)c1-c1ccc([N+](=O)[O-])c(NCc2ccccc2)c1`, the TGI was 38.3 µM.

With `COc1ccc(C2Oc3c(OC)cc(CCCO)cc3C2CO)cc1OC` (centres undefined), the TGI is more than 100 µM.

In turn, `COc1cc2c3cc1Oc1c(OC)c(OC)cc4c1C(Cc1ccc(O)c(c1)Oc1ccc(cc1)CC3N(C)CC2)CN(C)C4` (centres undefined) had a TGI of 23.7 µM.

The compound `COc1cc2[nH]c(=O)c3cc(-c4ccccc4)cc4c(Cl)nc(c1OC)c2c43` registered a TGI of 8.84 µM.

A further assay concerns SK-MEL-28 melanoma. Kind of assay: growth of human tumour cells (NCI), 48 h.
`CCc1nc(N)nc(N)c1-c1ccc([N+](=O)[O-])c(NCc2ccccc2)c1` displayed a TGI of 35.1 µM.

`COc1ccc(C2Oc3c(OC)cc(CCCO)cc3C2CO)cc1OC` (centres undefined) gave a TGI of more than 100 µM.

On to `COc1cc2c3cc1Oc1c(OC)c(OC)cc4c1C(Cc1ccc(O)c(c1)Oc1ccc(cc1)CC3N(C)CC2)CN(C)C4` (centres undefined), for which the TGI is 31.9 µM.

For `COc1cc2[nH]c(=O)c3cc(-c4ccccc4)cc4c(Cl)nc(c1OC)c2c43`, the TGI was more than 100 µM.

The next assay concerns A498 renal. Kind of assay: growth of human tumour cells (NCI), 48 h.
As to `CCc1nc(N)nc(N)c1-c1ccc([N+](=O)[O-])c(NCc2ccccc2)c1`, the TGI turned out to be 32.9 µM.

As for `COc1ccc(C2Oc3c(OC)cc(CCCO)cc3C2CO)cc1OC` (centres undefined), the GI50 is 26.1 µM and 73.4 µM; the TGI is 88 µM and > 100 µM.

`COc1cc2c3cc1Oc1c(OC)c(OC)cc4c1C(Cc1ccc(O)c(c1)Oc1ccc(cc1)CC3N(C)CC2)CN(C)C4` (centres undefined): the TGI was determined as 31.2 µM.

On to `COc1cc2[nH]c(=O)c3cc(-c4ccccc4)cc4c(Cl)nc(c1OC)c2c43`, for which the TGI is more than 100 µM.

In the next assay the test system is UACC-257 melanoma. The experiment in a line: growth of human tumour cells (NCI), 48 h.
`CCc1nc(N)nc(N)c1-c1ccc([N+](=O)[O-])c(NCc2ccccc2)c1`: the TGI is 30.9 µM.

As for `COc1ccc(C2Oc3c(OC)cc(CCCO)cc3C2CO)cc1OC` (centres undefined), the GI50 is 49.9 µM and 21.9 µM; the TGI is more than 100 µM.

In the case of `COc1cc2c3cc1Oc1c(OC)c(OC)cc4c1C(Cc1ccc(O)c(c1)Oc1ccc(cc1)CC3N(C)CC2)CN(C)C4` (centres undefined), the TGI worked out at 27.1 µM.

As for `COc1cc2[nH]c(=O)c3cc(-c4ccccc4)cc4c(Cl)nc(c1OC)c2c43`, the TGI stood at 21.6 µM.

Another assay deals with LOX IMVI melanoma. Kind of assay: growth of human tumour cells (NCI), 48 h.
Consider `CCc1nc(N)nc(N)c1-c1ccc([N+](=O)[O-])c(NCc2ccccc2)c1`, for which the TGI worked out at 45.4 µM.

On to `COc1ccc(C2Oc3c(OC)cc(CCCO)cc3C2CO)cc1OC` (centres undefined), for which the GI50 was > 100 µM and 17 µM; the TGI is more than 100 µM.

As to `COc1cc2[nH]c(=O)c3cc(-c4ccccc4)cc4c(Cl)nc(c1OC)c2c43`, the TGI is more than 73.6 µM.

For another assay, the system named is HOP-62 NSCLC. Kind of assay: growth of human tumour cells (NCI), 48 h.
For `CCc1nc(N)nc(N)c1-c1ccc([N+](=O)[O-])c(NCc2ccccc2)c1`, the TGI is 28.9 µM.

Compound `COc1ccc(C2Oc3c(OC)cc(CCCO)cc3C2CO)cc1OC` (centres undefined) came in with a TGI of more than 100 µM.

Compound `COc1cc2c3cc1Oc1c(OC)c(OC)cc4c1C(Cc1ccc(O)c(c1)Oc1ccc(cc1)CC3N(C)CC2)CN(C)C4` (centres undefined) came in with a TGI of 37.2 µM.

`COc1cc2[nH]c(=O)c3cc(-c4ccccc4)cc4c(Cl)nc(c1OC)c2c43` came in with a TGI of more than 72.7 µM.

The subject of a further assay is SK-MEL-2 melanoma. Kind of assay: growth of human tumour cells (NCI), 48 h.
Compound `CCc1nc(N)nc(N)c1-c1ccc([N+](=O)[O-])c(NCc2ccccc2)c1` registered a TGI of 50.2 µM.

As to `COc1ccc(C2Oc3c(OC)cc(CCCO)cc3C2CO)cc1OC` (centres undefined), the TGI is more than 100 µM.

Regarding `COc1cc2c3cc1Oc1c(OC)c(OC)cc4c1C(Cc1ccc(O)c(c1)Oc1ccc(cc1)CC3N(C)CC2)CN(C)C4` (centres undefined), the TGI amounted to 33.6 µM.

`COc1cc2[nH]c(=O)c3cc(-c4ccccc4)cc4c(Cl)nc(c1OC)c2c43` yielded a TGI of 38.7 µM.

The next assay has as its system RXF 393 renal. The experiment in a line: growth of human tumour cells (NCI), 48 h.
For `CCc1nc(N)nc(N)c1-c1ccc([N+](=O)[O-])c(NCc2ccccc2)c1`, the TGI came out at 52.7 µM.

With `COc1ccc(C2Oc3c(OC)cc(CCCO)cc3C2CO)cc1OC` (centres undefined), the TGI was more than 100 µM.

`COc1cc2c3cc1Oc1c(OC)c(OC)cc4c1C(Cc1ccc(O)c(c1)Oc1ccc(cc1)CC3N(C)CC2)CN(C)C4` (centres undefined) came in with a TGI of 23.4 µM.

As to `COc1cc2[nH]c(=O)c3cc(-c4ccccc4)cc4c(Cl)nc(c1OC)c2c43`, the TGI was more than 55.7 µM.

For a further assay, the system named is SF-268 CNS. The experiment in a line: growth of human tumour cells (NCI), 48 h.
In turn, `CCc1nc(N)nc(N)c1-c1ccc([N+](=O)[O-])c(NCc2ccccc2)c1` registered a TGI of 40.3 µM.

`COc1ccc(C2Oc3c(OC)cc(CCCO)cc3C2CO)cc1OC` (centres undefined) came in with a TGI of more than 100 µM.

In turn, `COc1cc2c3cc1Oc1c(OC)c(OC)cc4c1C(Cc1ccc(O)c(c1)Oc1ccc(cc1)CC3N(C)CC2)CN(C)C4` (centres undefined) showed a TGI of 65.6 µM.

In turn, `COc1cc2[nH]c(=O)c3cc(-c4ccccc4)cc4c(Cl)nc(c1OC)c2c43` displayed a TGI of more than 55.9 µM.

A further assay relates to COLO 205 colon. The experiment in a line: growth of human tumour cells (NCI), 48 h.
Turning to `CCc1nc(N)nc(N)c1-c1ccc([N+](=O)[O-])c(NCc2ccccc2)c1`, the TGI was found to be 35 µM.

In the case of `COc1ccc(C2Oc3c(OC)cc(CCCO)cc3C2CO)cc1OC` (centres undefined), the TGI was more than 100 µM.

Compound `COc1cc2c3cc1Oc1c(OC)c(OC)cc4c1C(Cc1ccc(O)c(c1)Oc1ccc(cc1)CC3N(C)CC2)CN(C)C4` (centres undefined) had a TGI of 21.6 µM.

The compound `COc1cc2[nH]c(=O)c3cc(-c4ccccc4)cc4c(Cl)nc(c1OC)c2c43` displayed a TGI of 38.5 µM.

The subject of a further assay is SNB-75 CNS. The experiment in a line: growth of human tumour cells (NCI), 48 h.
The compound `CCc1nc(N)nc(N)c1-c1ccc([N+](=O)[O-])c(NCc2ccccc2)c1` had a TGI of 35.4 µM.

In turn, `COc1ccc(C2Oc3c(OC)cc(CCCO)cc3C2CO)cc1OC` (centres undefined) had a TGI of more than 100 µM.

`COc1cc2c3cc1Oc1c(OC)c(OC)cc4c1C(Cc1ccc(O)c(c1)Oc1ccc(cc1)CC3N(C)CC2)CN(C)C4` (centres undefined) returned a TGI of 29.9 µM.

The compound `COc1cc2[nH]c(=O)c3cc(-c4ccccc4)cc4c(Cl)nc(c1OC)c2c43` registered a TGI of more than 60.3 µM.

Another assay deals with PC-3 prostate. Kind of assay: growth of human tumour cells (NCI), 48 h.
For the compound `CCc1nc(N)nc(N)c1-c1ccc([N+](=O)[O-])c(NCc2ccccc2)c1`, the TGI was found to be 39.9 µM.

The compound `COc1ccc(C2Oc3c(OC)cc(CCCO)cc3C2CO)cc1OC` (centres undefined) displayed a TGI of more than 100 µM.

Take `COc1cc2c3cc1Oc1c(OC)c(OC)cc4c1C(Cc1ccc(O)c(c1)Oc1ccc(cc1)CC3N(C)CC2)CN(C)C4` (centres undefined): the TGI is more than 100 µM.

Take `COc1cc2[nH]c(=O)c3cc(-c4ccccc4)cc4c(Cl)nc(c1OC)c2c43`: the TGI is more than 100 µM.

The next assay deals with U251 CNS. The experiment in a line: growth of human tumour cells (NCI), 48 h.
In turn, `CCc1nc(N)nc(N)c1-c1ccc([N+](=O)[O-])c(NCc2ccccc2)c1` registered a TGI of 30.1 µM.

For the compound `COc1ccc(C2Oc3c(OC)cc(CCCO)cc3C2CO)cc1OC` (centres undefined), the TGI is more than 100 µM.

In the case of `COc1cc2c3cc1Oc1c(OC)c(OC)cc4c1C(Cc1ccc(O)c(c1)Oc1ccc(cc1)CC3N(C)CC2)CN(C)C4` (centres undefined), the TGI was found to be 24.7 µM.

Consider `COc1cc2[nH]c(=O)c3cc(-c4ccccc4)cc4c(Cl)nc(c1OC)c2c43`, for which the TGI amounted to 62.5 µM.

Another assay has as its system SK-OV-3 ovarian. Kind of assay: growth of human tumour cells (NCI), 48 h.
Turning to `CCc1nc(N)nc(N)c1-c1ccc([N+](=O)[O-])c(NCc2ccccc2)c1`, the TGI was more than 55.1 µM.
